For one assay, the target named is GST-JAK1 enzyme (Homo sapiens (Human), UniProt P23458). Nature of the assay: JAK1 Kinase Assay Protocol. It counts as biochemical. The note with it: JAK1 kinase inhibition; read-out: LLE_JAK1 (IC50). The method, then:
JAK1 Kinase Assay Protocol
(§1) The assay reactions were performed in U-bottom 384-well plates. […] The reaction was initiated by the combination of GST-JAK1 enzyme with substrates and test compounds. The reactions were incubated at room temperature for 3 hours and terminated by adding 60 μl of 35 mM EDTA to each sample. Each reaction mixture was analyzed on the Caliper LabChip 3000 (Caliper, Hopkinton, Mass.) by electrophoretic separation of the fluorescent substrate and phosphorylated product. […] Compounds were dissolved at 10 mM in dimethylsulfoxide (DMSO) and evaluated at eleven concentrations. IC50 values were derived by non-linear regression analysis.

The next assay deals with GST-JAK3 enzyme (Homo sapiens (Human), UniProt P52333). Nature of the assay: JAK3 Kinase Assay Protocol (Caliper). It counts as biochemical. The note with it: JAK3 kinase inhibition; read-out: LLE_JAK3_FB (IC50). The method, then: JAK3 Kinase Assay Protocol (Caliper)
GST-JAK3 enzyme, sequence (P52333 whole entry): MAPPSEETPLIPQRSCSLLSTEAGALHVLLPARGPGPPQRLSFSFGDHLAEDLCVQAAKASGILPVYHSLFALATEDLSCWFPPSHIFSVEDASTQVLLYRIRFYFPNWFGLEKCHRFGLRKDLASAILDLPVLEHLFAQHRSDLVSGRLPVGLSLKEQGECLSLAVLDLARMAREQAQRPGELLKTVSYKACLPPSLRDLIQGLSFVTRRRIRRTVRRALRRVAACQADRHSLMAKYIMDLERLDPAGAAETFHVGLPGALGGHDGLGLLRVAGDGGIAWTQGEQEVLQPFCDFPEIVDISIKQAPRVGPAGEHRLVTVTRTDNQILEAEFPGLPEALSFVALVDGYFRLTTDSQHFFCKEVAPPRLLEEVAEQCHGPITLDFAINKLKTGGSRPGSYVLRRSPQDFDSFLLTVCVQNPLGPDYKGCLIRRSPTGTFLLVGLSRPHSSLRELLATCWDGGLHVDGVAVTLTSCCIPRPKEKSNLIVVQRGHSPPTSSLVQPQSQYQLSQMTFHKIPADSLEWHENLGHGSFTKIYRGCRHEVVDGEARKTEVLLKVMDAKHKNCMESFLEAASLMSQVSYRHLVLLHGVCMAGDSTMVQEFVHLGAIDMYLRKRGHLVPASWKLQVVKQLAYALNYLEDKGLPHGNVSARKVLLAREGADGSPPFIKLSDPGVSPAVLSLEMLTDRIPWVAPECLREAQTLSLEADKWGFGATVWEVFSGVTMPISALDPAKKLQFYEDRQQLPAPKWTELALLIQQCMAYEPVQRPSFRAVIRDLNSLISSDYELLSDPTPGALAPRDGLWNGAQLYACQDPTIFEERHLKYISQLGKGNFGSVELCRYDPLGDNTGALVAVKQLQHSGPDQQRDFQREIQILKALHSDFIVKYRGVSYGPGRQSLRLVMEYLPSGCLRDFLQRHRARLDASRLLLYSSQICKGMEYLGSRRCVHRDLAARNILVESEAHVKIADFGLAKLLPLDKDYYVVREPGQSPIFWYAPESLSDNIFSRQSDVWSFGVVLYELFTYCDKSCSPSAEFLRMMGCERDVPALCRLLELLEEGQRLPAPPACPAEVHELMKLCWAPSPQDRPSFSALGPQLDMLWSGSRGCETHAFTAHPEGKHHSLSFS
as §1, with “GST-JAK3” for “GST-JAK1”

Each structure is given as a SMILES string. pIC50: −log10 of the molar value.

GST-JAK1 enzyme, sequence (P23458 whole entry): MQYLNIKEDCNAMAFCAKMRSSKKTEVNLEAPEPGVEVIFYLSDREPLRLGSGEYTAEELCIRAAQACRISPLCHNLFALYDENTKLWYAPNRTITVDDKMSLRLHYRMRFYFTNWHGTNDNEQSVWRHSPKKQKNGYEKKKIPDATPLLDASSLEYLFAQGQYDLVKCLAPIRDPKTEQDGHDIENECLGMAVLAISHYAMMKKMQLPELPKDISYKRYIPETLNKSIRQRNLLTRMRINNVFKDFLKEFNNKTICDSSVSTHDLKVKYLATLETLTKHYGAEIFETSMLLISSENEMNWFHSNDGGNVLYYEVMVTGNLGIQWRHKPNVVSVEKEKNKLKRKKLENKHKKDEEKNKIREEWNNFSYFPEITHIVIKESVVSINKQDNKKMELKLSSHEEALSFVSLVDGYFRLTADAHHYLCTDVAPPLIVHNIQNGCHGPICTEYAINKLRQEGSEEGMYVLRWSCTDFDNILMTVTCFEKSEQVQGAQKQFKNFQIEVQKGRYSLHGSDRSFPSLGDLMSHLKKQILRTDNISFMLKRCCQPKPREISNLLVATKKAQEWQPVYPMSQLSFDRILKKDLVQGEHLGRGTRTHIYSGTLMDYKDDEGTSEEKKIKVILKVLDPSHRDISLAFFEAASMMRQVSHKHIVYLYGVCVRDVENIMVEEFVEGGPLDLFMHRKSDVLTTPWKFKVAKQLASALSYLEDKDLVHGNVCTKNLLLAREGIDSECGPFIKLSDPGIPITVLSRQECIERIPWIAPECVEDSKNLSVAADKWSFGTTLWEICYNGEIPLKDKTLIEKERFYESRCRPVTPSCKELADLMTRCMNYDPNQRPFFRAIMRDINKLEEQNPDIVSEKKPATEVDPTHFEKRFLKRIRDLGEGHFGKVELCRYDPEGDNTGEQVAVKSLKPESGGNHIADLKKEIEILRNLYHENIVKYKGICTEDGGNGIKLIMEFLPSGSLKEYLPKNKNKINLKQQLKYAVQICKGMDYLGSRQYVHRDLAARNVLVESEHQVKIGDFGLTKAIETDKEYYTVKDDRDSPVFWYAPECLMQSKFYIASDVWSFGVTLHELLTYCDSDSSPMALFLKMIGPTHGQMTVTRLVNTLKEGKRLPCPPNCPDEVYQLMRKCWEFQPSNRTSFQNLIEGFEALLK

On to `CC[C@H]1CN(c2ccc(C#N)cn2)C[C@H]1Nc1c(C(N)=O)cnn2cc(-c3ccc(=O)n(C)c3)cc12` [Example 173, 4-((3S,4S)-1-(5-cyanopyridin-2-yl)-4-ethylpyrrolidin-3-ylamino)-6-(1-methyl-6-oxo-1,6-dihydropyridin-3-yl)pyrrolo[1,2-b]pyridazine-3-carboxamide], for which the negative logarithm of the IC50 (pIC50) at GST-JAK1 enzyme was 9.10; at GST-JAK3 enzyme it was 9.40.

As to `CC[C@H]1CN(c2ccc(C#N)cn2)C[C@H]1Nc1c(C(N)=O)cnn2cc(-c3cnn(C)c3)cc12` [Example 175, 4-((3S,4S)-1-(5-cyanopyridin-2-yl)-4-ethylpyrrolidin-3-ylamino)-6-(1-methyl-1H-pyrazol-4-yl)pyrrolo[1,2-b]pyridazine-3-carboxamide], the results for the negative-log IC50 (pIC50) on GST-JAK1 enzyme and on GST-JAK3 enzyme were 8.72 and 8.82, respectively.

On to `CC[C@H]1CN(c2ncc(C#N)s2)C[C@H]1Nc1c(C(N)=O)cnn2cc(-c3cnn(C)c3)cc12` [Example 182, 4-((3S,4S)-1-(5-cyanothiazol-2-yl)-4-ethylpyrrolin-3-ylamino)-6-(1-methyl-1H-pyrazol-4-yl)pyrrolo[1,2-b]pyridazine-3-carboxamide], for which the values for the negative-log IC50 (pIC50) on GST-JAK1 enzyme and at GST-JAK3 enzyme were 9.10 and 9.52, respectively.

In the case of `CC[C@H]1CN(c2ncc(C#N)s2)C[C@H]1Nc1c(C(N)=O)cnn2cc(-c3cnn(CC(C)C)c3)cc12` [Example 183], the negative-log IC50 (pIC50) was 9.10 on GST-JAK1 enzyme and 9.70 at GST-JAK3 enzyme.

As to `C[C@H]1CN(c2ccc(C#N)cn2)C[C@H]1Nc1c(C(N)=O)cnn2cc(-c3cnn(CC(=O)N4CC(F)(F)C4)c3)cc12` [Example 184, 4-(((3S,4S)-1-(5-cyanopyridin-2-yl)-4-methylpyrrolidin-3-yl)amino)-6-(1-(2-(3,3-difluoroazetidin-1-yl)-2-oxoethyl)-1H-pyrazol-4-yl)pyrrolo[1,2-b]pyridazine-3-carboxamide], the pIC50 at GST-JAK1 enzyme is 9.70; on GST-JAK3 enzyme it was 9.40.

Turning to `C[C@H]1CN(c2ccc(C#N)cn2)C[C@H]1Nc1c(C(N)=O)cnn2cc(-c3cnn(CC(=O)N4CCC(F)(F)C4)c3)cc12` [Example 185, 4-(((3S,4S)-1-(5-cyanopyridin-2-yl)-4-methylpyrrolidin-3-yl)amino)-6-(1-(2-(3,3-difluoropyrrolidin-1-yl)-2-oxoethyl)-1H-pyrazol-4-yl)pyrrolo[1,2-b]pyridazine-3-carboxamide], the results for the pIC50 at GST-JAK1 enzyme and at GST-JAK3 enzyme were 9.52 and 9.22, respectively.

In the case of `CNC(=O)Cn1cc(-c2cc3c(N[C@@H]4CN(c5ccc(Cl)cn5)C[C@@H]4C)c(C(N)=O)cnn3c2)cn1` [Example 188, 4-(((3S,4S)-1-(5-chloropyridin-2-yl)-4-methylpyrroldin-3-yl)amino)-6-(1-(2-(methylamino)-2-oxoethyl)-1H-pyrazol-4-yl)pyrrolo[1,2-b]pyridazine-3-carboxamide], the pIC50 on GST-JAK1 enzyme is 9.40; on GST-JAK3 enzyme it was 9.30.

As for `C[C@H]1CN(C(=O)CC#N)C[C@H]1Nc1c(C(N)=O)cnn2cc(-c3ccnc(F)c3)cc12` [Example 201, 4-(((3S,4S)-1-(2-cyanoacetyl)-4-methylpyrrolidin-3-yl)amino)-6-(2-fluoropyridin-4-yl)pyrrolo[1,2-b]pyridazine-3-carboxamide], the pIC50 at GST-JAK1 enzyme was 9.30; at GST-JAK3 enzyme, 8.85.

For the compound `CNC(=O)c1ccc(-c2cc3c(N[C@@H]4CN(C(=O)OC)C[C@@H]4C)c(C(N)=O)cnn3c2)cn1` [Example 213, (3S,4S)-methyl 3-((3-carbamoyl-6-(6-(methylcarbamoyl)pyridin-3-yl)pyrrolo[1,2-b]pyridazin-4-yl)amino)-4-methylpyrrolidine-1-carboxylate], the values for the pIC50 on GST-JAK1 enzyme and at GST-JAK3 enzyme were 8.33 and 8.12, respectively.

As to `CC[C@H]1CN(C(=O)C2(C#N)CC2)C[C@H]1Nc1c(C(N)=O)cnn2cc(-c3cn(C)nc3C)cc12` [Example 220, 4-((3S,4S)-1-(1-cyanocyclopropanecarbonyl)-4-ethylpyrrolidin-3-ylamino)-6-(1,3-dimethyl-1H-pyrazol-4-yl)pyrrolo[1,2-b]pyridazine-3-carboxamide], the values for the pIC50 on GST-JAK1 enzyme and on GST-JAK3 enzyme were 8.96 and 8.82, respectively.

As for `CC[C@H]1CN(C(=O)C2(C#N)CC2)C[C@H]1Nc1c(C(N)=O)cnn2cc(-c3ccc(C)nc3)cc12` [Example 221, 4-((3S,4S)-1-(1-cyanocyclopropanecarbonyl)-4-ethylpyrrolidin-3-ylamino)-6-(6-methylpyridin-3-yl)pyrrolo[1,2-b]pyridazine-3-carboxamide], the pIC50 on GST-JAK1 enzyme was 9.00; at GST-JAK3 enzyme, 8.85.

As for `CCNC(=O)c1ccc(-c2cc3c(N[C@@H]4CN(C(=O)C(C)(C)C#N)C[C@@H]4CC)c(C(N)=O)cnn3c2)cn1` [Example 252, 4-((3S,4S)-1-(2-cyano-2-methylpropanoyl)-4-ethylpyrrolidin-3-ylamino)-6-(6-(ethylcarbamoyl)pyridin-3-yl)pyrrolo[1,2-b]pyridazine-3-carboxamide], the pIC50 was 8.37 at GST-JAK1 enzyme and 8.07 at GST-JAK3 enzyme.

In the case of `CC[C@H]1CN(C(=O)C2(C#N)CCC2)C[C@H]1Nc1c(C(N)=O)cnn2cc(-c3ccnc(Cl)c3)cc12` [Example 257, 6-(2-chloropyridin-4-yl)-4-((3S,4S)-1-(1-cyanocyclobutanecarbonyl)-4-ethylpyrrolidin-3-ylamino)pyrrolo[1,2-b]pyridazine-3-carboxamide], the negative-log IC50 (pIC50) at GST-JAK1 enzyme was 8.92; at GST-JAK3 enzyme, 9.52.

On to `COc1ncc(-c2cc3c(N[C@@H]4CN(C(=O)C5(C#N)CC5)C[C@@H]4CF)c(C(N)=O)cnn3c2)cn1` [Example 280, 4-((3S,4S)-1-(1-cyanocyclopropanecarbonyl)-4-(fluoromethyl)pyrrolidin-3-ylamino)-6-(2-methoxypyrimidin-5-yl)pyrrolo[1,2-b]pyridazine-3-carboxamide], for which the values for the pIC50 on GST-JAK1 enzyme and at GST-JAK3 enzyme were 9.05 and 8.05, respectively.

For `CCOc1ncc(-c2cc3c(N[C@@H]4CN(C(=O)C5(C#N)CC5)C[C@@H]4CF)c(C(N)=O)cnn3c2)cn1` [Example 281, 4-((3S,4S)-1-(1-cyanocyclopropanecarbonyl)-4-(fluoromethyl)pyrrolidin-3-ylamino)-6-(2-ethoxypyrimidin-5-yl)pyrrolo[1,2-b]pyridazine-3-carboxamide], the pIC50 is 8.74 at GST-JAK1 enzyme and 7.93 at GST-JAK3 enzyme.

With `CC[C@H]1CN(C(=O)C2(C#N)CC2)C[C@H]1Nc1c(C(N)=O)cnn2cc(-c3cc(C)no3)cc12` [Example 292, 4-(((3S,4S)-1-(1-cyanocyclopropanecarbonyl)-4-ethylpyrrolidin-3-yl)amino)-6-(3-methylisoxazol-5-yl)pyrrolo[1,2-b]pyridazine-3-carboxamide], the negative logarithm of the IC50 (pIC50) on GST-JAK1 enzyme is 9.15; at GST-JAK3 enzyme, 9.30.

For the compound `CNC(=O)c1cccc(-c2cc3c(N[C@@H]4CN(C(=O)C5(C#N)CC5)C[C@@H]4OC)c(C(N)=O)cnn3c2)c1` [Example 303, 4-(((3R,4S)-1-(1-cyanocyclopropanecarbonyl)-4-methoxypyrrolidin-3-yl)amino)-6-(3-(methylcarbamoyl)phenyl)pyrrolo[1,2-b]pyridazine-3-carboxamide], the pIC50 on GST-JAK1 enzyme was 9.30; at GST-JAK3 enzyme, 8.82.

For `CO[C@H]1CN(C(=O)C2(C#N)CC2)C[C@H]1Nc1c(C(N)=O)cnn2cc(-c3ccc(F)cc3)cc12` [Example 305, 4-(((3R,4S)-1-(1-cyanocyclopropanecarbonyl)-4-methoxypyrrolidin-3-yl)amino)-6-(4-fluorophenyl)pyrrolo[1,2-b]pyridazine-3-carboxamide], the pIC50 was 8.96 on GST-JAK1 enzyme and 8.82 at GST-JAK3 enzyme.

Consider `CO[C@H]1CN(C(=O)C2(C#N)CC2)C[C@H]1Nc1c(C(N)=O)cnn2cc(-c3ccc(C#N)cc3)cc12` [Example 308, 4-(((3R,4S)-1-(1-cyanocyclopropanecarbonyl)-4-methoxypyrrolidin-3-yl)amino)-6-(4-cyanophenyl)pyrrolo[1,2-b]pyridazine-3-carboxamide], for which the figures for the pIC50 at GST-JAK1 enzyme and on GST-JAK3 enzyme were 8.82 and 8.18, respectively.

With `COc1ccc(-c2cc3c(N[C@@H]4CN(S(C)(=O)=O)C[C@@H]4OC)c(C(N)=O)cnn3c2)cn1` [Example 315, 4-((3R,4S)-4-methoxy-1-(methylsulfonyl)pyrrolidin-3-ylamino)-6-(6-methoxypyridin-3-yl)pyrrolo[1,2-b]pyridazine-3-carboxamide], the negative-log IC50 (pIC50) on GST-JAK1 enzyme is 8.10; at GST-JAK3 enzyme, 8.05.

For the origin of these results see patent US8987268B2, “Pyrrolopyridazine JAK3 inhibitors and their use for the treatment of inflammatory and autoimmune diseases” (Bristol-Myers Squibb Company, priority 2011, dated 2015).
